Among the data in patent US12194050B2, “Thiadiazine derivatives” (RICHTER GEDEON NYRT., priority 2018, dated 2025) are EC50 values, retold here.

Sequence of human α7 nAchR (P36544 23-502): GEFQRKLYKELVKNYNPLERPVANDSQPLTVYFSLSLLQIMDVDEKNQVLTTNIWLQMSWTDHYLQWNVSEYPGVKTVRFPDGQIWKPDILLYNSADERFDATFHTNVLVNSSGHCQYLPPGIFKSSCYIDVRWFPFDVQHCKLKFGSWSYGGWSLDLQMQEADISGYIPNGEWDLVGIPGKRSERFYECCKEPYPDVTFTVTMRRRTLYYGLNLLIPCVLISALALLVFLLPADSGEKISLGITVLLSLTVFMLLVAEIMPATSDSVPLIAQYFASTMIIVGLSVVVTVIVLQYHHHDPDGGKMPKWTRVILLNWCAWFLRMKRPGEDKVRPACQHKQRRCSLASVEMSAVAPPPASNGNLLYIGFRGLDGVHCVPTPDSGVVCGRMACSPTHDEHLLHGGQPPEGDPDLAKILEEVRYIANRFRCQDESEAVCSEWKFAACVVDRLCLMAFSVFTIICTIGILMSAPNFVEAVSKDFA

For this assay, the target named is human α7 nAchR (Homo sapiens (Human), UniProt P36544). As to the kind of experiment: Human α7 nicotinic acetylcholine receptor [Ca2+]i assay (PAM, Ca2+ fluorometry). In kind it is cell-based. The settings on record: Flp-In 293 cells expressing human α7 nAchR and human RIC-3; in presence of saturating agonist (mostly PNU-282987, 1 μM). On the procedure:
Biological Activity Human α7 Nicotinic Acetylcholine Receptor [Ca^2+]i Assay
Cells: Flp-In 293 cells stably expressing human α7 nAchR and human RIC-3 (α7 cells, generated in house.)
Materials: 96-well plates coated with PDL (Falcon), culture medium, assay buffer, DMSO, FLIPR Calcium 5 kit (Molecular Devices), probenecid, agonist and PAM test compounds.
Brief Description of the Method (Ca^2+ Fluorometry)
α7 cells stably expressing human α7 nAchR were cultured in the medium detailed above, and were split twice a week. For the fluorometric measurements of cytosolic Ca^2+ ion concentration ([Ca^2+]i) cells were seeded in 96-well microplates at a density of 60000 cells/well and maintained overnight in a tissue culture incubator at 37° C. under an atmosphere of 95% air/5% CO2. The plating medium was identical with the culture medium. 50 μl of the growth medium was aspirated with a cell washer (BioTek Elx405UCVWS). Then 50 μl/well Calcium 5 kit diluted 2-fold in assay buffer was added manually using an 8-channel pipette. After an incubation period (20 minutes, 37° C.) 50 μl/well assay buffer containing vehicle (DMSO, 4% added) or reference α7 PAMs (4×of the final concentration) were added manually and the cells were incubated for an additional 10 minutes at 37° C. Baseline and agonist-evoked [Ca2+]i-changes were monitored with FlexStation II (Molecular Devices, Sunnyvale, Calif.), a plate reader fluorometer with integrated 8-channel fluid addition capability. Fluorescence measurements were carried out at 37° C. The dye was excited at 485 nm, emission was sampled at 525 nm at 1.4-s intervals. Baseline was recorded for 20 seconds followed by agonist stimulation. 50 μl 4× concentrated agonist solution was added to the cells using the pipettor of FlexStation II and fluorescence was monitored for an additional 40 seconds. Final DMSO concentration was 1% for all treatments. To achieve this, a series of DMSO stock solutions were prepared from all test compounds. These stocks were stored under 0° C. and were further diluted in assay buffer to obtain the desired final concentration immediately before the measurement. Agonist and PAM concentration-response studies were conducted in the presence of saturating concentrations of PAMs (mostly PNU-120596, 5 μM) and agonists (mostly PNU-282987, 1 μM), respectively. Results were expressed as ΔF/F values using SoftMax Pro software (Molecular Devices), where F was the resting fluorescence preceding agonist application and ΔF was the increase in fluorescence at a given time (ΔF=maximum fluorescence intensity values after stimulation minus average fluorescence intensity values before stimulation). In all experiments, all treatments were measured in multiple wells in parallel, and the mean ΔF/F values were used for analysis.
Regarding `COc1ccc(C2=NS(=O)(=O)N(CC3CC3)C(C(=O)Nc3cccc(C(F)(F)F)c3)=C2)cc1OC` [Example 102], the concentration giving a half-maximal response (EC50) was 320 nM. For `CCN1C(C(=O)Nc2cccc(C)c2)=CC(c2ccc(OC)c(C)c2)=NS1(=O)=O` [Example 45], the half-maximal effective concentration (EC50) is 210 nM. Take `COc1ccc(C2=NS(=O)(=O)N(CC3CC3)C(C(=O)Nc3cccc(C)c3)=C2)cc1OC` [Example 117]: the concentration for a half-maximal effect (EC50) amounted to 110 nM. In the case of `CCN1C(C(=O)Nc2ccc(F)c(C)n2)=CC([C@H]2CC[C@H](C(F)(F)F)CC2)=NS1(=O)=O` [Example 77], the concentration for a half-maximal effect (EC50) was 1500 nM. Regarding `COCCN1C(C(=O)Nc2cccc(C(F)(F)F)n2)=CC(C2CCC(F)(F)CC2)=NS1(=O)=O` [Example 130], the concentration for a half-maximal effect (EC50) came out at 960 nM. In the case of `CCN1C(C(=O)Nc2ccc(OC)cc2)=CC(c2ccc(OC)c(C(F)(F)F)c2)=NS1(=O)=O` [Example 38], the half-maximal effective concentration (EC50) was determined as 45 nM.

Consider `CCCCN1C(C(=O)Nc2cccc(C(F)(F)F)c2)=CC(c2ccc(OC)c(OC)c2)=NS1(=O)=O` [Example 111], for which the concentration for a half-maximal effect (EC50) is 200 nM. On to `CC[C@H](C)N1C(C(=O)Nc2cccc(C(F)(F)F)n2)=CC(c2ccc(OC)c(OC)c2)=NS1(=O)=O` [Example 82], for which the 50% effective concentration (EC50) was 120 nM. Turning to `COc1ccc(C2=NS(=O)(=O)N(C(C)C)C(C(=O)Nc3cccc(F)n3)=C2)cc1OC` [Example 123], the EC50 stood at 55 nM. With `CCN1C(C(=O)Nc2cccc(C(F)(F)F)c2)=CC(c2ccc(C(F)(F)F)c(OC)c2)=NS1(=O)=O` [Example 48], the 50% effective concentration (EC50) was determined as 330 nM. As for `COc1ccc(C2=NS(=O)(=O)N(CC(F)(F)F)C(C(=O)Nc3cccc(C(F)(F)F)c3)=C2)cc1OC` [Example 118], the EC50 turned out to be 530 nM. As for `CCCN1C(C(=O)Nc2cccc(Cl)c2)=CC(c2ccc(OC)c(OC)c2)=NS1(=O)=O` [Example 114], the figure is 380 nM; as for `CCCN1C(C(=O)Nc2cccc(C(F)(F)F)c2)=CC(c2ccc(OC)c(C(F)(F)F)c2)=NS1(=O)=O` [Example 115], 85 nM; as for `O=C(Nc1cncc(F)n1)C1=CC([C@H]2CC[C@H](C(F)(F)F)CC2)=NS(=O)(=O)N1CC1CC1` [Example 139], 150 nM. Turning to `CCCN1C(C(=O)Nc2cccc(C)c2)=CC(c2ccc(OC)c(OC)c2)=NS1(=O)=O` [Example 113], the EC50 is 80 nM. As for `COc1ccc(C2=NS(=O)(=O)N(C(C)C)C(C(=O)Nc3cccc(Cl)c3)=C2)cc1OC` [Example 92], the figure is 290 nM; as for `CCN1C(C(=O)Nc2cccc(C(F)(F)F)c2)=CC([C@H]2CC[C@H](C(F)(F)F)CC2)=NS1(=O)=O` [Example 50], 1100 nM; as for `CCN1C(C(=O)Nc2cccc(C(F)(F)F)c2F)=CC([C@H]2CC[C@H](C(F)(F)F)CC2)=NS1(=O)=O` [Example 57], 2000 nM.

For the compound `COc1ccc(C2=NS(=O)(=O)N(C)C(C(=O)Nc3cc(Cl)ccc3OC)=C2)cc1Cl` [Example 25], the EC50 was 1400 nM. To `CCN1C(C(=O)Nc2cccc(C)c2)=CC(c2ccc(OC)c(C(F)(F)F)c2)=NS1(=O)=O` [Example 40] belongs 60 nM; to `CCN1C(C(=O)Nc2cccc(C(F)(F)F)n2)=CC(C2CCC(F)(F)CC2)=NS1(=O)=O` [Example 68], 140 nM; to `O=C(Nc1cccc(C(F)(F)F)n1)C1=CC([C@H]2CC[C@H](C(F)(F)F)CC2)=NS(=O)(=O)N1CC1CC1` [Example 106], 70 nM. For `COc1ccc(C2=NS(=O)(=O)N(C)C(C(=O)Nc3cccc(C(F)(F)F)c3)=C2)cc1C` [Example 23], the half-maximal effective concentration (EC50) stood at 400 nM. As to `CC(C)N1C(C(=O)Nc2ccnc(C(F)(F)F)n2)=CC([C@H]2CC[C@H](C(F)(F)F)CC2)=NS1(=O)=O` [Example 136], the EC50 is 150 nM. For `CCN1C(C(=O)Nc2ccnc(F)n2)=CC([C@H]2CC[C@H](C(F)(F)F)CC2)=NS1(=O)=O` [Example 79], the EC50 stood at 320 nM.

On to `COc1cccc(NC(=O)C2=CC(c3ccc(OC)c(OC)c3)=NS(=O)(=O)N2C)c1` [Example 10], for which the EC50 amounted to 670 nM. For the compound `C=CCN1C(C(=O)Nc2ccc(OC)cc2)=CC(c2ccc(OC)c(OC)c2)=NS1(=O)=O` [Example 120], the concentration for a half-maximal effect (EC50) was found to be 120 nM. With `O=C(Nc1ccc(F)cn1)C1=CC([C@H]2CC[C@H](C(F)(F)F)CC2)=NS(=O)(=O)N1CC1CC1` [Example 133], the EC50 is 230 nM.

Consider `COc1ccc(C2=NS(=O)(=O)N(C)C(C(=O)Nc3cccc(C(F)(F)F)c3)=C2)cc1OC` [Example 12], for which the EC50 amounted to 230 nM. As to `O=C(Nc1cccc(C(F)(F)F)n1)C1=CC(C2CCC(F)(F)CC2)=NS(=O)(=O)N1CC1CC1` [Example 134], the EC50 amounted to 80 nM. In the case of `CCCN1C(C(=O)Nc2cccc(C(F)(F)F)c2)=CC(c2ccc(OC)c(Cl)c2)=NS1(=O)=O` [Example 100], the EC50 came to 150 nM. To `CC(C)N1C(C(=O)Nc2cncc(C(F)(F)F)n2)=CC([C@H]2CC[C@H](C(F)(F)F)CC2)=NS1(=O)=O` [Example 124] belongs 110 nM; to `COc1ccc(C2=NS(=O)(=O)N(C)C(C(=O)Nc3ccc(C)c(Cl)c3)=C2)cc1OC` [Example 13], 340 nM; to `COc1ccc(C2=NS(=O)(=O)N(C)C(C(=O)Nc3cccc(C)c3)=C2)cc1Cl` [Example 27], 110 nM. With `CCCN1C(C(=O)Nc2cccc(C(F)(F)F)n2)=CC(c2ccc(OC)c(C)c2)=NS1(=O)=O` [Example 99], the EC50 came out at 40 nM. Regarding `COc1ccc(C2=NS(=O)(=O)N(C)C(C(=O)Nc3ccc4c(c3)CCN(C)C4=O)=C2)cc1OC` [Example 2], the EC50 came to 1400 nM. As for `CC(C)N1C(C(=O)Nc2cccc(C(F)(F)F)n2)=CC([C@H]2CC[C@H](C(F)(F)F)CC2)=NS1(=O)=O` [Example 93], the EC50 turned out to be 120 nM.

On to `Cc1cccc(NC(=O)C2=CC(c3ccc4c(cnn4C)c3)=NS(=O)(=O)N2C)c1` [Example 22], for which the EC50 stood at 370 nM. `CCCN1C(C(=O)Nc2cccc(C(F)(F)F)n2)=CC(c2ccc(OC)c(C(F)(F)F)c2)=NS1(=O)=O` [Example 97]: the 50% effective concentration (EC50) stood at 30 nM. As to `CN1C(C(=O)Nc2cccc(C(F)(F)F)n2)=CC([C@H]2CC[C@H](C(F)(F)F)CC2)=NS1(=O)=O` [Example 54], the EC50 was 480 nM. As for `O=C(Nc1cccc(F)n1)C1=CC(C2CCC(F)(F)CC2)=NS(=O)(=O)N1CC1CC1` [Example 135], the half-maximal effective concentration (EC50) came out at 120 nM.

For the compound `CCN1C(C(=O)Nc2cccc(C(F)(F)F)n2)=CC([C@H]2CC3C[C@@H]3C2)=NS1(=O)=O` (stereo partly drawn) [Example 71], the concentration for a half-maximal effect (EC50) was found to be 140 nM.

For the compound `CCN1C(C(=O)Nc2ccc(C)c(Cl)c2)=CC(c2ccc(OC)c(OC)c2)=NS1(=O)=O` [Example 30], the EC50 came to 440 nM.

Regarding `CC(C)N1C(C(=O)Nc2cccc(F)n2)=CC(C2CCC(F)(F)CC2)=NS1(=O)=O` [Example 127], the EC50 was determined as 580 nM. On to `COc1ccc(C2=NS(=O)(=O)N(C(C)C)C(C(=O)Nc3cc(Cl)ccn3)=C2)cc1OC` [Example 110], for which the EC50 worked out at 640 nM.

`CN1C(C(=O)Nc2cccc(C(F)(F)F)n2)=CC(C2CCC(F)(F)CC2)=NS1(=O)=O` [Example 55]: the 50% effective concentration (EC50) was 470 nM. For `CCN1C(C(=O)Nc2cccc(C(F)(F)F)n2)=CC(C2CCCCC2)=NS1(=O)=O` [Example 73], the EC50 came out at 390 nM.

Turning to `COc1ccc(C2=NS(=O)(=O)N(C)C(C(=O)Nc3ccc(C)cc3)=C2)cc1OC` [Example 14], the concentration for a half-maximal effect (EC50) stood at 1400 nM.

In general, EC50 refers to the midpoint of the concentration-response curve.
